The text below walks through data of patent US11149047B2, “Aryl imidazoles for treatment of cancer” (Aptose Biosciences Inc., priority 2017, dated 2021).

The nature of data set [1]: Stability / complex formation in culture medium and on storage. The class given is physicochemical. The conditions noted are these: COMPOUND I incubated with complete tissue culture medium. The procedure: Five molar equivalents of ferrous ion as FeSO4 in a concentrated water stock was added to COMPOUND I in ethanol which produced a deep red precipitate that was subsequently dissolved in DMSO and characterized by HPLC and mass spectrometry. Fe(COMPOUND I)3 was >95% pure and stable in the complete RPMI-1640 media for at least 5 days.

The next data set relates to MV4-11. As to the kind of experiment: Cytotoxicity study (MTS). The data set is classed as cell-based. As to conditions: Homo sapiens. The procedure:
EOL-1, GRANTA-519, Jeko-1, Jurkat, Molm-13, NOMO-1, SKM-1, and SU-DHL-6 were obtained from Leibniz-Institut DSMZ. HL-60, KG-1, Mino, MV4-11, Raji, and THP-1 were obtained from ATCC. HEL92.1.7 were obtained from the European Collection of Authenticated Cell Cultures and Ramos cells were a gift from Dr. M. Andreeff (MD Anderson Cancer Center, Houston, Tex.). All cells were cultured in complete media as per the manufacturer's instructions. Early passage cells were collected and frozen within 1 month of receipt from the manufacturer. All experiments were performed on early passage cells within 6 weeks of thawing. MycoScope Mycoplasma Detection Kit (Genlantis catalog #MY01050) was used to screen for potential contamination every 6 months. Peripheral blood mononuclear cells (PBMC) were isolated from fresh healthy donor blood using Ficoll-Paque PLUS (GE Healthcare, catalog #17-1440-02). For synthesis of COMPOUND I free base, 10-phenanthroline-5,6-dione (1.2 equivalents), acetic acid (22 volumes), 2-methyl-5-fluoroindole-3-carboxaldehyde (1.0 equivalents), and ammonium acetate (15 equivalents) were reacted under medium agitation while heated at 95±5° C. for 3 to 7 hours. The reaction was cooled to between 20° C. and 25° C., filtered, rinsed with acetic acid and ethanol, and dried with N2 purge, followed by a wash with 2:1 ethanol:water at 65° C. for 4 hours, cooling to 20° C. to 25° C., filtration, rinsing with 2:1 ethanol:water and EtOAc, and then dried with N2 purge. The purity by HPLC was 99.5%, and the structural identity was confirmed by FT-IR, ^1HNMR, ^13C NMR, and LC/MS. For Fe(COMPOUND I)3 synthesis, five molar equivalents of ferrous ion FeSO4 in water was added to COMPOUND I dissolved in ethanol. The deep red precipitate produced, Fe(COMPOUND I)3, was collected and dissolved in DMSO and characterized by HPLC and mass spectrometry as >95% pure. CX-5461 (7) was purchased from MedChem Express (catalog #HY-13323).
[…] Cell viability was measured using CellTiter 96 AQueous one solution (MTS) cell proliferation assay (Promega, catalog #G3581), and IC50 values were calculated using GraphPad Prism 7 software.

Data set [2] has as its system MV4-11, EOL-1, and KG-1 AML cells. As to the kind of experiment: Flow cytometry for apoptosis (Annexin V / PI). The class given is cell-based. The conditions noted are these: all cell lines, FIG. 10A. The procedure: Cells were treated as described above. To determine apoptosis, cells were stained with FITC-Annexin V and propidium iodide (PI; BD Pharmingen, catalog #556570) and then analyzed on BD Accuri C6 flow cytometer. To measure DNA synthesis and phases of cell cycle, treated cells were stained with 5-ethynyl-2′-deoxyuridine (Edu) Alexa Fluor 488 (Thermo Fisher Scientific, catalog #C10425) and PI (PI/RNase A staining solution, BD Biosciences, catalog #550825). The dead cells were excluded from analysis by using Live/Dead Fixable Far Red Dead Cell Stain Kit (Thermo Fisher Scientific, catalog #L34973). Staining was performed as per the manufacturers' instructions.
To investigate the mechanism by which COMPOUND I causes cell death, MV4-11, EOL-1, and KG-1 AML cells were treated with or without COMPOUND I and subjected to apoptotic marker detection by flowcytometry and Western blotting. Cells were stained with PI and Annexin V to distinguish between live (Annexin V and PI negative), early apoptotic (Annexin V positive and PI negative), late apoptotic (Annexin V and PI positive), and dead (Annexin V negative and PI positive) cells. […] COMPOUND I induced accumulation of c-PARP1 in a concentration- and time dependent manner that paralleled apoptosis induction as measured by Annexin V/PI staining (FIGS. 10B-C; FIG. 17B). […]
A general note: In flow cytometry, cells or beads pass a laser one at a time.

Another data set has as its system ds-DNA. In words: Modified FRET assay with ds-DNA hairpin oligo. The class given is binding. The procedure: FRET assay and data analysis was performed as described previously and modified by using dual labeled (5′ FAM-3′ BHQ1) single-stranded oligos. Melting temperature of each oligo was assessed in the presence of vehicle DMSO or escalating concentrations of COMPOUND I, Fe(COMPOUND I)3, CX-5461, or TMPyP4 using a Roche LightCycler 96 [at 37° C. for 300 seconds followed by temperature increased in […] intervals up to 91° C. (25 steps) with 300-second total incubation time at each temperature]. Drug and oligo reaction mixes were analyzed immediately or incubated for 6 hours at room temperature and then analyzed. […] COMPOUND I data are presented for 6-hour time point.
To assess selectivity for G4 structures over nonspecific interactions with ds-DNA, the FRET assay was repeated with a self-complimentary oligo that forms a ds-DNA hairpin in solution. […] The lack of effect on 45 s rRNA may reflect differences in availability of COMPOUND I and/or Fe(COMPOUND I)3 into the rRNA-rich nucleolar region of the nucleus. Nevertheless, COMPOUND I clearly can stabilize G4 structures, which provides an explanation for the inhibition of the expression of MYC and other genes. […]

For data set [3] the following is noted: patients with solid tumors, up to maximum tolerated dose; cited from earlier work.
The conditions of data set [4]: animals; cited from earlier work.

Entries after “also recorded” stand apart in the source; their conditions may differ. Like-named read-outs stand apart in the source and are kept apart here.

Regarding `Cc1[nH]c2ccc(F)cc2c1-c1nc2c3cccnc3c3ncccc3c2[nH]1` [COMPOUND I, 2-(5-fluoro-2-methyl-1H-indol-3-yl)-1H-imidazo[4,5-f][1,10]phenanthroline], the “extracellular Fe(COMPOUND I)3 formation” value in data set [1] is reported as “no extracellular Fe(COMPOUND I)3 was detected”. In addition, the IC50 – broadly, the point on the concentration scale where inhibition reaches its midpoint – in the data set with MV4-11 (MV4-11, 120 h, AML, 5 days, read-out: IC50 (μM) Mean) amounted to 0.24 µM; in the data set with MV4-11 (MV4-11, exposure 48 hours, read-out: IC50) it was 0.47 µM; in the data set with MV4-11 (MV4-11, exposure 72 hours, read-out: IC50), 0.4 µM; in the data set on MV4-11 (MV4-11, exposure 120 hours, read-out: IC50) it was 0.24 µM. The “apoptotic cells at 24 hours” value in data set [2] was “concentration-dependent increase in apoptotic cells”. For the same molecule, in the data set with ds-DNA, the “interaction with dsDNA” value is reported as “did not interact with dsDNA”. For the same molecule, the myelosuppression result in data set [3] is “did not produce myelosuppression; also recorded: does not produce myelosuppression”; in data set [4], “did not produce myelosuppression”.
